Results: patent US12208097B2, “Protein kinase C inhibitors for treatment of uveal melanoma” (NOVARTIS AG, priority 2017, dated 2025)

Key:
[1] = test system: MP46 (GNAQmut) uveal melanoma xenograft; assay: Patient derived uveal melanoma xenograft model MP46; format: in vivo, female SCID mice; conditions: 35 days post dosing
Text: The anti-tumor activity and tolerability of Compound I (i.e., LXS196) and the MDM2 inhibitor (Compound III or its salt thereof) was investigated in vivo using two patient derived uveal melanoma xenograft models, MP46 (GNAQmut) and MP55 (GNA11mut/BAP1 null).
(§1) MP46 and MP55 uveal melanoma tumors were established in female SCID mice by subcutaneous implantation of 3×3×3 mm tumor fragments into the flank of each mouse. When tumors reached approximately 100 mm^3, mice were randomized according to tumor volume into treatment groups (n=8-10/group). Test agents were administered orally once (QD) or twice daily (BID) at the dose levels indicated. Tumor volumes of treatment groups are plotted from the time the treatment groups were randomized, and dosing commenced.

[2] = test system: MP55 (GNA11mut/BAP1 null) uveal melanoma xenograft; assay: Patient derived uveal melanoma xenograft model MP55; format: in vivo, female SCID mice
Text: as §1, with “The anti-tumor activity and tolerability of Compound […]196) and the MDM2 inhibitor (Compound III or its salt thereof) was investigated in vivo using two patient derived uveal melanoma xenograft models, MP46 (GNAQmut) and MP55 (GNA11mut/BAP1 null). MP46” for “MP46”

[3] = Phase I trial of Compound I in patients with metastatic uveal melanoma: safety, DLT, MTD/RDE; format: in vivo
Procedure: (§2) A phase 1, multicenter, open-label, single-arm study of Compound I was performed in patients with metastatic uveal melanoma. A Bayesian logistic regression model, employing the escalation with overdose control principle, was used to guide the dose escalation and to estimate the maximum tolerated dose (MTD)/recommended dose for expansion (RDE). Safety was described using incidence of adverse events (AEs) by relation and severity of the AE graded according to the Common Terminology Criteria for AEs (CTCAE, v4.03). Overall response rate was defined as per Response Evaluation Criteria in Solid Tumors (RECIST, v1.1).
(§3) Patients eligible for inclusion in this study have to meet all of the following key criteria: • Metastatic uveal melanoma (histologically or cytologically confirmed) that is judged to be progressive; patients may be treatment naive or have had any number of lines of prior therapy. • Measurable disease, defined as at least one lesion that can be accurately measured in at least one dimension (longest diameter to be recorded) as >20 mm with conventional techniques or as >10 mm with CT scan. • ECOG performance status ≤1
Patients eligible for this study must not meet any of the following criteria: • Malignant disease other than that being treated in this study • Symptomatic or untreated leptomeningeal or brain metastases or spinal cord compression. Treated brain metastases must have been stable for at least 1 month. • Impaired cardiac function or clinically significant cardiac diseases • Patients with abnormal laboratory values as defined by the protocol • Systemic anti-cancer therapy within 2 weeks of the first dose of study treatment. For cytotoxic agents that have major delayed toxicity, e.g. mitomycin C and nitrosoureas, and for anti-PD-1 or PD-L1 antibodies 4 weeks is indicated as the washout period. For patients receiving a CTLA-4 antagonist or vaccine as anticancer therapy, 6 weeks is indicated as the washout period. Patients must have recovered or stabilized from toxicities related to their previous treatment except for alopecia.
As of the data of Jun. 12, 2017, 55 patients received Compound I (i.e., LXS196) at doses ranging from 100 mg to 1000 mg once daily (QD; 38 patients or “pts”) and 200 mg to 400 mg twice daily (BID; 17 pts). Dose limiting toxicities (DLTs) were reported in 7 of 38 pts (QD schedule) and in 1 of 12 pts (BID schedule). The most common DLT was hypotension, manageable with LXS196 interruption and dose reduction. MTDs were determined at 500 mg QD and 400 mg BID. Due to better overall tolerability the RDE is 300 mg BID. Most common AEs (all grade, in ≥20% of pts) suspected related to LXS196 in pts across both schedules (n=55) were nausea (58.2%), diarrhea (32.7%), vomiting (25.5%), hypotension (25.5%), fatigue (20%) and asthenia (20%). The majority of GI and constitutional AEs were grade (gr) ½. Gr ¾ AEs suspected related to LXS196 were reported in 12 pts (21.8%), the most common being hypotension (10.9%). All other gr ¾ AEs occurred in ≤2 pts (3.6%) each.

[4] = Phase I trial: pharmacokinetic (PK) studies; format: in vivo, human
Procedure: as §2
(§4) LXS196 led to reduction of phosphorylated myristoylated, alanine-rich C kinase substrate (pMARCKS) and phosphorylated PKC delta (pPKC delta), evident of target engagement in on-treatment tumor biopsies.

[5] = test system: phosphorylated myristoylated, alanine-rich C kinase substrate (pMARCKS); assay: Phase I trial: target engagement in on-treatment tumor biopsies (pMARCKS); format: in vivo, human
Text: as §4

[6] = test system: phosphorylated PKC delta (pPKC delta); assay: Phase I trial: target engagement in on-treatment tumor biopsies (pPKC delta); format: in vivo, human
Text: as §4

[7] = test system: metastatic uveal melanoma; assay: Phase I trial: tumor response per RECIST v1.1; format: in vivo, human; conditions: in 68 evaluable pts
Procedure: as §2, §3
In 68 evaluable pts, 6 had confirmed partial responses (PR) per RECIST v 1.1 (300 mg QD, 500 mg QD, 200 mg BID, 2 at 300 mg BID, 400 mg BID). A further 45 pts had stable disease as best overall response. […]

UM cell lines = conditions: with RITA and Topotecan; cited from earlier work

COc1cc2c(cc1OC(C)C)[C@H](c1ccc(Cl)cc1)N(c1ccc(N(C)C[C@H]3CC[C@H](N4CCN(C)C(=O)C4)CC3)cc1)C(=O)C2 [Compound III, (S)-1-(4-chloro-phenyl)-7-isopropoxy-6-methoxy-2-(4-{methyl-[4-(4-methyl-3-oxo-piperazin-1-yl)-trans-cyclohexylmethyl]-amino}-phenyl)-1,4-dihydro-2H-isoquinolin-3-one]
treatment/control (T/C) ([1]; MP46, 100 mg/kg QD oral): 39%
T/C ([2]; MP55, 100 mg/kg QD oral): 20%

CC1(N)CCN(c2cccnc2NC(=O)c2nc(-c3ncccc3C(F)(F)F)cnc2N)CC1 [LXS196, 3-amino-N-(3-(4-amino-4-methylpiperidin-1-yl)pyridin-2-yl)-6-(3-(trifluoromethyl)pyridin-2-yl)pyrazine-2-carboxamide]
AE asthenia, all grade, suspected related ([3]; human, in vivo): 20%
AE diarrhea, all grade, suspected related ([3]; human, in vivo): 32.7%
AE fatigue, all grade, suspected related ([3]; human, in vivo): 20%
AE hypotension, all grade, suspected related ([3]; human, in vivo): 25.5%
AE nausea, all grade, suspected related ([3]; human, in vivo): 58.2%
AE vomiting, all grade, suspected related ([3]; human, in vivo): 25.5%
All other gr ¾ AEs, each, number of patients ([3]; human, in vivo): ≤ 2 pts
All other gr ¾ AEs, each, share of patients ([3]; human, in vivo): ≤ 3.6%
Gr ¾ AEs suspected related, number of patients ([3]; human, in vivo): 12 pts
Gr ¾ AEs suspected related, share of patients ([3]; human, in vivo): 21.8%
Gr ¾ hypotension (most common gr ¾ AE) ([3]; human, in vivo): 10.9%
Grade of the majority of GI and constitutional AEs ([3]; human, in vivo): grade (gr) ½
Most common DLT ([3]; human, in vivo): hypotension
RDE (recommended dose for expansion) ([3]; human, in vivo): 300 mg BID
MTD ([3]; once daily schedule): 500 mg QD
MTD ([3]; twice daily schedule): 400 mg BID
Exposure ([4]; doses above 300 mg QD and 200 mg BID): in the efficacious range from preclinical projections
half-life ([4]; human, in vivo, oral, consistent across different doses, read-out: terminal T½ (converted)): ~10 h
Tmax ([4]; human, in vivo, post dose, patients, oral): ~1 h
Effect on pMARCKS [5]: reduction
Effect on pPKC delta [6]: reduction
Stable disease as best overall response [7]: 45 pts
Confirmed partial responses (PR) per RECIST v 1.1 ([7]; 300 mg QD, 500 mg QD, 200 mg BID, 2 at 300 mg BID, 400 mg BID): 6 pts
regression ([1]; MP46, 120 mg/kg BID oral): 63%
T/C ([2]; MP55, 120 mg/kg BID oral): 20%

COc1ccc(C2=N[C@@H](c3ccc(Cl)cc3)[C@@H](c3ccc(Cl)cc3)N2C(=O)N2CCNC(=O)C2)c(OC(C)C)c1 [Nutlin-3]
Combination effect on growth inhibition (UM cell lines): synergistically
